Laboratory results reported in patent publication US20250243176A1, “(S)-1-(1-ACRYLOYLPIPERIDIN-3-YL)-2-FLUORO-5,6,7,8,9,10-HEXAHYDROCYCLO HEPTA[B]INDOLE-4-CARBOXAMIDE, AND RELATED CRYSTALLINE FORMS, COMPOSITIONS, AND METHODS THEREOF” (GB005, Inc., priority 2021, published 2025).
“Also recorded” adds a separate entry of the source. Read-outs that look alike come from different tables or passages of the source.

Tests used:
[1] = molecular target: T1, TEC (Homo sapiens, UniProt P42680); experiment: Kinome scan, TEC; assay type: biochemical
T1 sequence (P42680 1-631): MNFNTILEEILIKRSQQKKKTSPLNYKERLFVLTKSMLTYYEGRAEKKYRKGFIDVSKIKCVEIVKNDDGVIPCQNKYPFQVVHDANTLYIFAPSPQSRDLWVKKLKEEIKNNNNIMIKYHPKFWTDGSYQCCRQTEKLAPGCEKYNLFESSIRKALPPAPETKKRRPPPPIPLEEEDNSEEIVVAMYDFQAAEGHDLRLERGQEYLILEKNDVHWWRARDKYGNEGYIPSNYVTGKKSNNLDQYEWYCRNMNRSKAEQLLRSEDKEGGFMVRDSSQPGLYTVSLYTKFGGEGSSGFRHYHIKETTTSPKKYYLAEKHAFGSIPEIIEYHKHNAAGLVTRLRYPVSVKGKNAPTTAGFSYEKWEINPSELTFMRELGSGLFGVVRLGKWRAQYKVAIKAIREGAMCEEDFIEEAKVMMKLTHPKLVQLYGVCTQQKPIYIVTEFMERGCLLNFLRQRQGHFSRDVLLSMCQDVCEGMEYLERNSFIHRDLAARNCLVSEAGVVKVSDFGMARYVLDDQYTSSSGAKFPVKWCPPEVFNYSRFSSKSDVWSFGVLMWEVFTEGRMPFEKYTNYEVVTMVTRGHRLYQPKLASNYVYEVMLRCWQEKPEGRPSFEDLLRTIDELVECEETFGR
Text: (§1) (S)-1-(1-acryloylpiperidin-3-yl)-2-fluoro-5,6,7,8,9,10-hexahydrocyclohepta[b]indole-4-carboxamide, hereinafter referred to as “Compound 1”, is an orally available, selective, potent inhibitor of Bruton's tyrosine kinase (BTK), thereby providing potential treatment options in BTK-driven diseases. The potency of Compound 1 for BTK inhibition is in the nM range in both cell-free enzymatic and whole blood functional assays.

[2] = molecular target: T2, Bruton's tyrosine kinase (BTK) (Homo sapiens, UniProt Q06187); experiment: BTK whole blood functional assay; assay type: cell-based
T2 construct: from tissue; host or cells: whole blood
Text: as §1

[3] = system: BTK; experiment: BTK inactivation kinetics in peripheral and CNS tissue
Text: as §1

[4] = Phase 1 safety and tolerability; assay type: in vivo, human; conditions: healthy subjects, blinded safety data
Method: The study investigates the administration of Compound 1 to healthy human subjects, to evaluate the safety, tolerability and PK of single and multiple-escalating doses. Additional objectives include assessing the effect of formulation on PK, the effect of food on PK, the effect of a CYP3A inhibitor on PK and the effect of Compound 1 on CYP3A activity. PK parameters including AUC, AUC, Cmax, and Tmax are determined. An additional exploratory objective evaluates pharmacodynamics, as the time-course of BTK inhibition. The study is conducted with up to 144 healthy male and female subjects, aged 18-55 years, with a body weight over 48 kg, BMI 18.5-30.0 kg/m^2, with no clinically significant abnormalities.
Safety is assessed throughout the study and PK and PD are characterized using serial blood samples collected up to 48 hours post-dose for Compound 1 plasma concentrations, BTK target occupancy (TO) and target engagement (TE). Cerebrospinal fluid (CSF) samples are collected at 2 hours post-dose to characterize the relationship between Compound 1 plasma concentrations and CNS penetrance (CSF/Unbound plasma concentration). Compound 1 PK parameters (e.g., AUClast, AUCinf, Cmax, Tmax, t1/2) are estimated by standard noncompartmental methods. […]

[5] = Phase 1 food effect on pharmacokinetics; assay type: in vivo, human; conditions: for Tmax / half-life / AUC(0-inf) / Cmax: human, plasma, oral; for AUC(0-inf) / Cmax: mean
Text: Cohort 11 is a randomized, 2-treatment, 2-period, 2-sequence, single-dose level food effect evaluation. The formulation used in Cohort 11 is Formulation A. In Treatment Sequence FH, subjects receive Compound 1 in the fasted state on Day 1, and a second dose in the fed state (high-fat, high-calorie meal) on Day 8. In Treatment Sequence HF, subjects receive Compound 1 in the fed state (high-fat, high-calorie meal) on Day 1 and a second dose in the fasted state on Day 8. Days 2-7 are washout days.
Results: Preliminary pharmacokinetic results evaluating the effect of food on Compound 1 PK are presented, including 12 subjects from Cohort 11, […] 15 mg under fasting conditions, or in a fed state (with a moderate-fat meal or with a high-fat high-calorie meal). Preliminary PK parameters are presented in Table 48 (all pharmacokinetic parameters of […] are reported as Mean (% coefficient of variation), except for Tmax and t/2, which are reported as Median (Min, Max)), and in FIG. 28.

[6] = 15 mg, Cohort 11, 15 mg single dose, Fasted
[7] = 15 mg, Cohort 11, 15 mg single dose, High-Fat
[8] = 15 mg, Cohorts 2 and 7, 15 mg single dose, Moderate-Fat

T2 sequence (Q06187 whole entry, species assumed): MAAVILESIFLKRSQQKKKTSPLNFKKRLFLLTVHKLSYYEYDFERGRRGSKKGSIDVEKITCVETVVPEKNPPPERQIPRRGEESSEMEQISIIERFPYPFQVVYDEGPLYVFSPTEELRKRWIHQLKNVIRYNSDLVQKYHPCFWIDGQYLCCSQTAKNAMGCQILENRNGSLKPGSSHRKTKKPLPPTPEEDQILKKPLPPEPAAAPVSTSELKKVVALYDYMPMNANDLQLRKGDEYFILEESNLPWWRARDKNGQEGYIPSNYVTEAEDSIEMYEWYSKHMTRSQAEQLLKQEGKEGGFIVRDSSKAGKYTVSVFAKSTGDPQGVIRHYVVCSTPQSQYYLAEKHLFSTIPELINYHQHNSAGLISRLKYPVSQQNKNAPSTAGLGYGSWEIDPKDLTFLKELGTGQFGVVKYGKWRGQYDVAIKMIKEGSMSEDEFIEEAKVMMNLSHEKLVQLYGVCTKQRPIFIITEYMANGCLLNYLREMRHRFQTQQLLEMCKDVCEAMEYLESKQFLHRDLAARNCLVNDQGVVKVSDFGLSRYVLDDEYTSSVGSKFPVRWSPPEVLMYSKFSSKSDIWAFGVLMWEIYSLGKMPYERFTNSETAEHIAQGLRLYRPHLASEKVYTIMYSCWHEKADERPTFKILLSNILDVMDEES

- inhibition at 1 µM [1]: > 50%
- potency for BTK inhibition [2]: nM range
- AUC0-inf, High-Fat/Fasted % GMR - paired ([5]; 15 mg single dose): 120.3%
- AUC0-inf, Moderate-Fat/Fasted % GMR - unpaired ([5]; 15 mg single dose): 107.9%
- Cmax, High-Fat/Fasted % GMR - paired ([5]; 15 mg single dose): 68.0%
- Cmax, Moderate-Fat/Fasted % GMR - unpaired ([5]; 15 mg single dose): 74.1%
- Tmax ([5]; both sexes, 15 mg, single 15 mg dose, fasting, moderate-fat meal or high-fat high-calorie meal, read-out: mean plasma Tmax): 1 to 2.5 h
- half-life ([5]; both sexes, 15 mg, single 15 mg dose, fasting, moderate-fat meal or high-fat high-calorie meal, read-out: terminal half-life (converted)): ~3 h
- AUC(0-inf) [5, 6]: 312 ng·h/mL
- Cmax [5, 6]: 137 ng/mL
- half-life ([5]; 15 mg, Cohort 11, 15 mg single dose, Fasted, median, read-out: T1/2 (converted)): 2.89 h
- Tmax ([5]; 15 mg, Cohort 11, 15 mg single dose, Fasted, median, read-out: Tmax): 1 h
- AUC(0-inf) [5, 7]: 356 ng·h/mL
- Cmax [5, 7]: 85.5 ng/mL
- half-life ([5]; 15 mg, Cohort 11, 15 mg single dose, High-Fat, median, read-out: T1/2 (converted)): 2.99 h
- Tmax ([5]; 15 mg, Cohort 11, 15 mg single dose, High-Fat, median, read-out: Tmax): 2.5 h
- AUC(0-inf) [5, 8]: 322 ng·h/mL
- Cmax [5, 8]: 101 ng/mL
- half-life ([5]; 15 mg, Cohorts 2 and 7, 15 mg single dose, Moderate-Fat, median, read-out: T1/2 (converted)): 2.9 h
- Tmax ([5]; 15 mg, Cohorts 2 and 7, 15 mg single dose, Moderate-Fat, median, read-out: Tmax): 1.5 h
- effect of food on PK ([5]; moderate fat, or high-fat high calorie meal, 15 mg): no clinically significant effect
SMILES: C=CC(=O)N1CCC[C@@H](c2c(F)cc(C(N)=O)c3[nH]c4c(c23)CCCCC4)C1 [Compound 1, (S)-1-(1-acryloylpiperidin-3-yl)-2-fluoro-5,6,7,8,9,10-hexahydrocyclohepta[b]indole-4-carboxamide]
- BTK inactivation kinetics [3]: rapid
- safety and tolerability ([4]; MAD cohort, 15 mg once daily for 10 days, fed): generally well tolerated with no serious adverse events or early study discontinuations reported
- safety and tolerability ([4]; SAD cohorts, single dose 5 to 200 mg, fed (moderate-fat meal)): generally well tolerated with no serious adverse events or early study discontinuations reported; also recorded: well tolerated across the dose range
